± gives the standard deviation of the averaged measurements.
Tests used:
[1] = test system: ST8814; test: drug sensitivity score (DSS, CellTox-Green cytotoxicity, 72 h) (DSS (dimensionless)); higher = more cytotoxic; extreme values may be limits of the assay
Summary of the method: (§1)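 MPNST cell lines and primary human Schwann cells were grown for 72 h at 37 °C in 384-well plates containing five 10-fold compound dilutions. CellTox-Green, added before seeding at a final 1:1000 dilution, gave fluorescence from DNA released by disrupted cells, and signals were scaled to vehicle and positive-control wells. Curves were fitted with a four-parameter logistic model. Drug sensitivity score and relative IC50 come from these fits, with IC50 censored at the top concentration.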

[2] = test system: S1507-2; test: as above
Summary of the method: as §1

[3] = test system: HSC2 (primary human Schwann cells); test: as above
Summary of the method: as §1

[4] = test system: STS26T; test: as above
Summary of the method: as §1

[5] = test system: HSC1 (primary human Schwann cells); test: as above
Summary of the method: as §1

[6] = test system: HS-PSS; test: as above
Summary of the method: as §1

[7] = test system: ST8814; test: drug sensitivity score (DSS, CellTiter-Glo viability, 72 h) (DSS (dimensionless)); higher = more sensitive; extreme values may be limits of the assay
Summary of the method: (§2)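 For this screen, 384-well plates were preprinted with each compound at five concentrations in 10-fold steps and seeded with MPNST cell lines or primary human Schwann cells at 750–1000 cells per well. Incubation lasted 72 h at 37 °C, 5% CO2, and CellTiter-Glo ATP luminescence, scaled between vehicle and positive-control wells and averaged over duplicates where available, served as viability. Logistic fits with four parameters were applied. Relative IC50 (censored at the top concentration) and drug sensitivity score derive from these fits, and percent inhibition is at the top concentration.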

[8] = test system: S1507-2; test: as above
Summary of the method: as §2

[9] = test system: YST-1; test: as above
Summary of the method: as §2

[10] = test system: HSC2 (primary human Schwann cells); test: as above
Summary of the method: as §2

[11] = test system: HS-Sch-2; test: as above
Summary of the method: as §2

[12] = test system: STS26T; test: as above
Summary of the method: as §2

[13] = test system: HSC1 (primary human Schwann cells); test: as above
Summary of the method: as §2

[14] = test system: HS-PSS; test: as above
Summary of the method: as §2

[15] = test system: S462; test: as above
Summary of the method: as §2

[16] = test system: ST8814; test: % inhibition of CellTiter-Glo viability at highest tested concentration (72 h), relative to DMSO and benzethonium chloride controls; higher = more inhibition
Summary of the method: as §2

[17] = test system: S1507-2; test: as above
Summary of the method: as §2

[18] = test system: YST-1; test: as above
Summary of the method: as §2

[19] = test system: HSC2 (primary human Schwann cells); test: as above
Summary of the method: as §2

[20] = test system: HS-Sch-2; test: as above
Summary of the method: as §2

[21] = test system: STS26T; test: as above
Summary of the method: as §2

[22] = test system: HSC1 (primary human Schwann cells); test: as above
Summary of the method: as §2

[23] = test system: HS-PSS; test: as above
Summary of the method: as §2

[24] = test system: S462; test: as above
Summary of the method: as §2

Row | SMILES | drug sensitivity score [1] | drug sensitivity score [2] | drug sensitivity score [3] | drug sensitivity score [4] | drug sensitivity score [5] | drug sensitivity score [6] | drug sensitivity score [7] | drug sensitivity score [8] | drug sensitivity score [9] | drug sensitivity score [10] | drug sensitivity score [11] | drug sensitivity score [12] | drug sensitivity score [13] | drug sensitivity score [14] | drug sensitivity score [15] | % inhibition [16] | % inhibition [17] | % inhibition [18] | % inhibition [19] | % inhibition [20] | % inhibition [21] | % inhibition [22] | % inhibition [23] | % inhibition [24]
1 | Cn1c(Nc2ccc(C(F)(F)F)cc2)nc2cc(Oc3ccnc(-c4ncc(C(F)(F)F)[nH]4)c3)ccc21 [RAF265] (max concentration tested 1000 nM) | 0 | 0 | 0 | 0 | 0 | 0 | 3.46 | 4.23 ± 0.6 | 2.73 | 14.4 | 1.56 | 3.93 | 11.2 | 4.44 | 5.79 ± 0.67 | 33.1% | 43.6 ± 6% | 30.2% | 68.9% | 22.3% | 40.9% | 70.8% | 52.2% | 51.9 ± 1.2%
2 | CC1(C)NC(=O)N(c2ccc([N+](=O)[O-])c(C(F)(F)F)c2)C1=O [Nilutamide] (max concentration tested 10000 nM) | 0 | 0 | 0 | 0 | 0 | 0 | 0 | 0 | 0 | 0 | 0.51 | 0 | 0.162 | 0 | 0 | -1.67% | 7.48 ± 3.5% | -2.31% | 9.17% | 18.2% | 7.4% | 9.41% | 8.31% | 6.29 ± 2.4%
3 | CC(C)c1c(C(=O)Nc2ccccc2)c(-c2ccccc2)c(-c2ccc(F)cc2)n1CC[C@@H](O)C[C@@H](O)CC(=O)O [Atorvastatin] (max concentration tested 10000 nM) | 2.32 | 1.46 ± 2.1 | 19.6 | 2.9 | 17.1 | 0 | 3.73 | 2.53 ± 0.48 | 6.47 | 19.7 | 6.02 | 5.4 | 16.6 | 6.74 | 9.93 ± 0.43 | 55.2% | 41.9 ± 8% | 89.5% | 101% | 80.5% | 69.6% | 97.5% | 75.3% | 96.5 ± 1.1%
4 | C=CCc1cccc(/C=N/NC(=O)CN2CCN(Cc3ccccc3)CC2)c1O [PAC-1] (max concentration tested 10000 nM) | 0.202 | 0 | 0 | 0 | 0 | 2.32 | 3.36 | 2.43 ± 0.66 | 4.81 | 8.57 | 10.1 | 3.59 | 6.29 | 6.09 | 3.7 ± 0.048 | 57.7% | 52.7 ± 7.1% | 69.4% | 85.9% | 91.1% | 54.6% | 75.5% | 84.3% | 73.6 ± 1.1%
5 | CCOC(=O)CCNc1cc(N2CCc3ccccc3CC2)nc(-c2ccccn2)n1 [GSK-J4] (max concentration tested 100000 nM) | 6.13 | 3.11 ± 4.4 | 7.09 | 8.17 | 7.1 | 4.79 | 14.1 | 13.4 ± 0.92 | 16.3 | 15.2 | 15.9 | 14.6 | 14.8 | 14.4 | 16.3 ± 0.36 | 97.1% | 97.2 ± 1.9% | 100% | 96.5% | 99% | 96.1% | 95.8% | 99.4% | 95.2 ± 0.48%
6 | Nc1ncnc2c1nc(N)n2[C@@H]1O[C@H](CO)[C@@H](O)[C@H]1O [8-amino-adenosine] (max concentration tested 50000 nM) | 14.7 | 12.1 ± 6.4 | 4.74 | 16.9 | 4.02 | 3.6 | 19.6 | 21.3 ± 0.37 | 22.8 | 15.6 | 19.3 | 19.9 | 18.1 | 17.9 | 20.2 ± 0.77 | 98.4% | 99.405 ± 0.063% | 102% | 96.7% | 102% | 100% | 98% | 101% | 99.7 ± 0.63%
7 | C[C@]12CC[C@H](O)CC1=CC[C@@H]1[C@@H]2CC[C@]2(C)C(c3cccnc3)=CC[C@@H]12 [Abiraterone] (max concentration tested 5000 nM) | 0 | 0.133 ± 0.19 | 0 | 0 | 0 | 0 | 0 | 1.83 ± 2 | 0 | 1.01 | 0 | 0 | 0.394 | 0 | 0.775 ± 0.16 | 4.42% | 17.1 ± 2.1% | 5.69% | 18.7% | 3.26% | 3.38% | 12.6% | -3.84% | 7.79 ± 0.37%

From the supplement of paper PMC5579334
